Data set [1] deals with Staphylococcus aureus. The experiment in a line: Antibacterial activity against methicillin-resistant Staphylococcus aureus 2658 RCMB after 20 hrs by broth microdilution assay. The data set is classed as functional.
The test system of data set [2] is Staphylococcus aureus. The experiment in a line: Antibacterial activity against vancomycin-resistant Staphylococcus aureus VRSA10 after 20 hrs by broth microdilution assay. The data set is classed as functional. The settings on record: VRSA10, 20 h. (In general: In broth dilution the organism is exposed to a series of concentrations in liquid medium.)
For data set [3], the system named is Enterococcus faecium. The experiment in a line: Bactericidal activity against vancomycin-resistant Enterococcus faecium ATCC 700221 incubated for 20 hrs followed by re-plating on tryptic soy agar plates at 37 degC for 18 hrs by broth microdilution assay. The data set is classed as functional.
Data set [4] concerns Staphylococcus aureus. The experiment in a line: Antibacterial activity against methicillin-resistant Staphylococcus aureus NRS385 after 20 hrs by broth microdilution assay. The settings on record: NRS385, 20 h. The data set is classed as functional.
Data set [5] has as its system Enterococcus faecalis. Briefly: Bactericidal activity against vancomycin-resistant Enterococcus faecalis ATCC 51299 incubated for 20 hrs followed by re-plating on tryptic soy agar plates at 37 degC for 18 hrs by broth microdilution assay. The data set is classed as functional.
In data set [6] the test system is Staphylococcus aureus. Briefly: Bactericidal activity against Staphylococcus aureus USA400 NRS123 incubated for 20 hrs followed by re-plating on tryptic soy agar plates at 37 degC for 18 hrs by broth microdilution assay. The data set is classed as functional.
For data set [7], the system named is Staphylococcus aureus. The experiment in a line: Bactericidal activity against Staphylococcus aureus USA300 NRS384 incubated for 20 hrs followed by re-plating on tryptic soy agar plates at 37 degC for 18 hrs by broth microdilution assay. The data set is classed as functional.
The subject of data set [8] is Staphylococcus aureus. The experiment in a line: Antibacterial activity against Staphylococcus aureus after 20 hrs by broth microdilution assay. The data set is classed as functional.
Data set [9] has as its system Staphylococcus epidermidis. Briefly: Bactericidal activity against methicillin-resistant Staphylococcus epidermidis NRS101 incubated for 20 hrs followed by re-plating on tryptic soy agar plates at 37 degC for 18 hrs by broth microdilution assay. The data set is classed as functional.
The subject of data set [10] is Enterococcus faecium. The experiment in a line: Antibacterial activity against vancomycin-resistant Enterococcus faecium ATCC 700221 after 20 hrs by broth microdilution assay. To be noted: ATCC 700221, 20 h. The data set is classed as functional.
For data set [11], the system named is Staphylococcus epidermidis. Briefly: Antibacterial activity against methicillin-resistant Staphylococcus epidermidis NRS101 after 20 hrs by broth microdilution assay. The data set is classed as functional. The settings on record: NRS101, 20 h.
The test system of data set [12] is Caco-2. The experiment in a line: Cytotoxicity against human Caco2 cells assessed as effect on cell viability up to 64 ug/ml after 2 hrs by MTS assay. The data set is classed as cell-based. To be noted: caco-2, 2 h. In general terms: Formazan colour is commonly taken as a measure of viable cells.
The subject of data set [13] is Streptococcus pneumoniae. The experiment in a line: Bactericidal activity against methicillin-resistant Streptococcus pneumoniae ATCC 700677 incubated for 20 hrs followed by re-plating on tryptic soy agar plates at 37 degC for 18 hrs by broth microdilution assay. The data set is classed as functional.
For data set [14], the system named is Staphylococcus aureus. Briefly: Antibacterial activity against methicillin-resistant Staphylococcus aureus after 20 hrs by broth microdilution assay. The data set is classed as functional.
In data set [15] the test system is Staphylococcus aureus. Briefly: Bactericidal activity against linezolid-resistant Staphylococcus aureus NRS119 incubated for 20 hrs followed by re-plating on tryptic soy agar plates at 37 degC for 18 hrs by broth microdilution assay. The data set is classed as functional.
Data set [16] relates to Staphylococcus aureus. Briefly: Bactericidal activity against vancomycin-resistant Staphylococcus aureus VRSA12 incubated for 20 hrs followed by re-plating on tryptic soy agar plates at 37 degC for 18 hrs by broth microdilution assay. The data set is classed as functional.
Data set [17] has as its system Streptococcus pneumoniae. The experiment in a line: Bactericidal activity against cephalosporin-resistant Streptococcus pneumoniae ATCC 51916 incubated for 20 hrs followed by re-plating on tryptic soy agar plates at 37 degC for 18 hrs by broth microdilution assay. The data set is classed as functional.
In data set [18] the test system is Staphylococcus aureus. The experiment in a line: Antibacterial activity against vancomycin-resistant Staphylococcus aureus VRSA12 after 20 hrs by broth microdilution assay. The data set is classed as functional. To be noted: VRSA12, 20 h.
Data set [19] relates to Staphylococcus aureus. Briefly: Bactericidal activity against methicillin-resistant Staphylococcus aureus NRS386 incubated for 20 hrs followed by re-plating on tryptic soy agar plates at 37 degC for 18 hrs by broth microdilution assay. The data set is classed as functional.
The test system of data set [20] is Staphylococcus aureus. Briefly: Bactericidal activity against methicillin-resistant Staphylococcus aureus NRS385 incubated for 20 hrs followed by re-plating on tryptic soy agar plates at 37 degC for 18 hrs by broth microdilution assay. The data set is classed as functional.
For data set [21], the system named is Enterococcus faecalis. Briefly: Antibacterial activity against vancomycin-resistant Enterococcus faecalis ATCC 51299 after 20 hrs by broth microdilution assay. The data set is classed as functional. To be noted: ATCC 51299, 20 h.
Data set [22] concerns Staphylococcus aureus. The experiment in a line: Bactericidal activity against vancomycin-resistant Staphylococcus aureus VRSA10 incubated for 20 hrs followed by re-plating on tryptic soy agar plates at 37 degC for 18 hrs by broth microdilution assay. The data set is classed as functional.
Data set [23] concerns Streptococcus pneumoniae. Briefly: Antibacterial activity against cephalosporin-resistant Streptococcus pneumoniae ATCC 51916 after 20 hrs by broth microdilution assay. The data set is classed as functional. To be noted: ATCC 51916, 20 h.
The subject of data set [24] is Staphylococcus aureus. Briefly: Bactericidal activity against methicillin-sensitive Staphylococcus aureus NRS107 incubated for 20 hrs followed by re-plating on tryptic soy agar plates at 37 degC for 18 hrs by broth microdilution assay. The data set is classed as functional.
For data set [25], the system named is Streptococcus pneumoniae. The experiment in a line: Antibacterial activity against methicillin-resistant Streptococcus pneumoniae ATCC 700677 after 20 hrs by broth microdilution assay. The data set is classed as functional. The settings on record: ATCC 700677, 20 h.
In data set [26] the test system is Staphylococcus aureus. Briefly: Antibacterial activity against methicillin-resistant Staphylococcus aureus NRS386 after 20 hrs by broth microdilution assay. The data set is classed as functional. To be noted: NRS386, 20 h.
Data set [27] deals with Listeria monocytogenes. Briefly: Bactericidal activity against Listeria monocytogenes ATCC 19111 incubated for 20 hrs followed by re-plating on tryptic soy agar plates at 37 degC for 18 hrs by broth microdilution assay. The data set is classed as functional.
Data set [28] relates to Listeria monocytogenes. The experiment in a line: Antibacterial activity against Listeria monocytogenes ATCC 19111 after 20 hrs by broth microdilution assay. The settings on record: ATCC 19111, 20 h. The data set is classed as functional.
Data set [29] deals with Staphylococcus aureus. Briefly: Antibacterial activity against methicillin-resistant Staphylococcus aureus USA400 NRS123 after 1 passages over 2 weeks by broth microdilution method. The data set is classed as functional, organism-based.

In brackets after ≈: the same amount, converted by molar mass. Activity calls are given as the source filed them. The calls are words filed in the database; no cut-off is given here.

Regarding `CCCCCCCCOc1ccc(-c2nc(C)c(-c3ccnc(NN)n3)s2)cc1`, in data set [1], 3.12 µg/mL (≈ 7.58 µM) was the least that counted as inhibitory (MIC).
On the same count and under the same terms, the value for `CCCCCCCOc1ccc(-c2nc(C)c(-c3ccnc(N)n3)s2)cc1` was above 50 µg/mL.
As for `CCCCCCCCOc1ccc(-c2nc(C)c(-c3ccnc(NC(=N)N(C)C)n3)s2)cc1`, the MIC (usually the lowest concentration found to suppress growth) in [2] is 16 µg/mL (≈ 34.3 µM); in data set [4], 16 µg/mL (≈ 34.3 µM); in data set [8] it was 8 µg/mL (≈ 17.1 µM); in data set [10], 8 µg/mL (≈ 17.1 µM); in data set [11] it was 4 µg/mL (≈ 8.57 µM); in data set [14], 8 to 16 µg/mL (≈ 17.1 to 34.3 µM). Moreover, the minimal inhibitory concentration (MIC) in [18] stood at 16 µg/mL (≈ 34.3 µM); in data set [1], 1.56 µg/mL (≈ 3.34 µM); in data set [21] it was 32 µg/mL (≈ 68.6 µM); in [23] it was 16 µg/mL (≈ 34.3 µM); in data set [25] it was 16 µg/mL (≈ 34.3 µM); in [26], 16 µg/mL (≈ 34.3 µM). Also, the MIC in data set [28] is 4 µg/mL (≈ 8.57 µM). The minimum bactericidal concentration (MBC) (usually the lowest tested concentration that kills the bacteria rather than only halting them) was found to be 8 µg/mL (≈ 17.1 µM) in data set [3]; 32 µg/mL (≈ 68.6 µM) in data set [5]; 16 µg/mL (≈ 34.3 µM) in data set [6]; 16 µg/mL (≈ 34.3 µM) in [7]; 8 µg/mL (≈ 17.1 µM) in data set [9]; 32 µg/mL (≈ 68.6 µM) in data set [13]. Besides, the MBC in [15], in data set [16], in data set [17], in [19], in data set [20] and in data set [22] was 16 µg/mL (≈ 34.3 µM) throughout. Further, the MBC in data set [24] and in data set [27] was 8 µg/mL (≈ 17.1 µM) throughout. In addition, the Activity result in data set [12] is “Non-Toxic”.
Regarding `CCCCCCCCOc1ccc(-c2nc(C)c(-c3ccnc(N)n3)s2)cc1`, in [1], the MIC is above 50 µg/mL.
Turning to `CCCCCCCCOc1ccc(-c2nc(C)c(-c3ccnc(N4CC(O)C4)n3)s2)cc1`, in data set [1], the minimum inhibitory concentration (MIC) came out at 6.25 µg/mL (≈ 13.8 µM).
Consider `CCCCCCCCOc1ccc(-c2nc(C)c(-c3ccnc(NC(=N)N4CCN(C)CC4)n3)s2)cc1`, for which the MIC in data set [2] is 8 µg/mL (≈ 15.3 µM); in data set [4], 16 µg/mL (≈ 30.7 µM); in data set [8], 16 µg/mL (≈ 30.7 µM); in [10], 16 µg/mL (≈ 30.7 µM); in [11], 8 µg/mL (≈ 15.3 µM); in data set [14] it was 16 to 32 µg/mL (≈ 30.7 to 61.3 µM). Moreover, the MIC in [18] was 16 µg/mL (≈ 30.7 µM); in data set [1] it was 0.78 µg/mL (≈ 1.5 µM); in [21] it was 16 µg/mL (≈ 30.7 µM); in data set [23], 32 µg/mL (≈ 61.3 µM); in data set [25], 16 µg/mL (≈ 30.7 µM); in data set [26], 16 µg/mL (≈ 30.7 µM). Moreover, in data set [28], the minimal inhibitory concentration (MIC) worked out at 4 µg/mL (≈ 7.67 µM). Further, the MBC was determined as 16 µg/mL (≈ 30.7 µM) in [3]; 64 µg/mL (≈ 123 µM) in [5]; 32 µg/mL (≈ 61.3 µM) in [6]; 16 µg/mL (≈ 30.7 µM) in data set [7]; 8 µg/mL (≈ 15.3 µM) in data set [9]; 32 µg/mL (≈ 61.3 µM) in data set [13]. In addition, the minimum bactericidal concentration (MBC) amounted to 32 µg/mL (≈ 61.3 µM) in data set [15]; 16 µg/mL (≈ 30.7 µM) in data set [16]; 32 µg/mL (≈ 61.3 µM) in [17]; 16 µg/mL (≈ 30.7 µM) in data set [19]; 16 µg/mL (≈ 30.7 µM) in [20]; 8 µg/mL (≈ 15.3 µM) in data set [22]. The MBC was above 64 µg/mL in data set [24] and 8 µg/mL (≈ 15.3 µM) in [27]. Also, in data set [12], the Activity entry is “Non-Toxic”.
Regarding `CO[C@H]1/C=C/O[C@@]2(C)Oc3c(C)c(O)c4c(O)c(c(/C=N/N5CCN(C)CC5)c(O)c4c3C2=O)NC(=O)/C(C)=C\C=C\[C@H](C)[C@H](O)[C@@H](C)[C@@H](O)[C@@H](C)[C@H](OC(C)=O)[C@@H]1C`, the result in data set [29] was inactive.
On to `CCCCCCCCOc1ccc(-c2nc(C)c(-c3ccnc(NC(=N)N4CCOCC4)n3)s2)cc1`, for which the MIC in [1] stood at 6.25 µg/mL (≈ 12.3 µM).
Compound `CCCCCCCCOc1ccc(-c2nc(C)c(-c3ccnc(NC)n3)s2)cc1` gave an MIC in data set [1] above 50 µg/mL.
Consider `CCCCCCCOc1ccc(-c2nc(C)c(-c3ccnc(N4CC(O)C4)n3)s2)cc1`, for which the MIC in [1] stood at 6.25 µg/mL (≈ 14.2 µM).

(Values after ChEMBL document CHEMBL4152249, “Alkoxyphenylthiazoles with broad-spectrum activity against multidrug-resistant gram-positive bacterial pathogens” (Eur J Med Chem, 2018).)
